# Patent US20180099931A1 (AbbVie S.à.r.l., priority 2016, published 2018)
# pEC50: −log10 of the molar value. Where two headings read alike, the source gives them in different places.
# Molecular target: T1, F508delCFTR (Homo sapiens, UniProt P13569, DEL508-508)
# T1 construct: expressed in transfected cells; host or cells: CFBE41o- human lung-derived epithelial cells (CFBE4lo-F508delCFTR-HRP), doxycycline-inducible
# Experiment: Cell Surface Expression-Horse Radish Peroxidase (CSE-HRP) Assay;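 as to Maximum % activity (with co-corrector): co-corrector and positive control are both the same reference corrector at 2 µM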;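 as to Maximum % activity (without co-corrector): percent of the 2 µM on-plate positive control corrector response above DMSO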
# Format: cell-based
# Details: for Maximum % activity (with co-corrector) / Emax: maximum at any tested concentration, normalized to on-plate positive control; for Emax: read-out: Maximum % activity (without co-corrector)
# [1] = CSE-HRP, test compound without co-corrector, read-out: EC50 (without co-corrector)
# [2] = CSE-HRP, with co-corrector (2 μM of 3-[(2R,4R)-4-({[1-(2,2-difluoro-1,3-benzodioxol-5-yl)cyclopropyl]carbonyl}amino)-7-methoxy-3,4-dihydro-2H-chromen-2-yl]benzoic acid), read-out: EC50 (with co-corrector)
# [3] = CSE-HRP, with co-corrector (2 μM)
# [4] = test compound without co-corrector
# [5] = test compound without co-corrector, read-out: EC50 (without co-corrector)
# [6] = with co-corrector (2 μM of 3-[(2R,4R)-4-({[1-(2,2-difluoro-1,3-benzodioxol-5-yl)cyclopropyl]carbonyl}amino)-7-methoxy-3,4-dihydro-2H-chromen-2-yl]benzoic acid)
# [7] = with co-corrector (2 μM of 3-[(2R,4R)-4-({[1-(2,2-difluoro-1,3-benzodioxol-5-yl)cyclopropyl]carbonyl}amino)-7-methoxy-3,4-dihydro-2H-chromen-2-yl]benzoic acid), read-out: EC50 (with co-corrector)
# T1 sequence (P13569 with tags, fused parts or gaps DEL508-508): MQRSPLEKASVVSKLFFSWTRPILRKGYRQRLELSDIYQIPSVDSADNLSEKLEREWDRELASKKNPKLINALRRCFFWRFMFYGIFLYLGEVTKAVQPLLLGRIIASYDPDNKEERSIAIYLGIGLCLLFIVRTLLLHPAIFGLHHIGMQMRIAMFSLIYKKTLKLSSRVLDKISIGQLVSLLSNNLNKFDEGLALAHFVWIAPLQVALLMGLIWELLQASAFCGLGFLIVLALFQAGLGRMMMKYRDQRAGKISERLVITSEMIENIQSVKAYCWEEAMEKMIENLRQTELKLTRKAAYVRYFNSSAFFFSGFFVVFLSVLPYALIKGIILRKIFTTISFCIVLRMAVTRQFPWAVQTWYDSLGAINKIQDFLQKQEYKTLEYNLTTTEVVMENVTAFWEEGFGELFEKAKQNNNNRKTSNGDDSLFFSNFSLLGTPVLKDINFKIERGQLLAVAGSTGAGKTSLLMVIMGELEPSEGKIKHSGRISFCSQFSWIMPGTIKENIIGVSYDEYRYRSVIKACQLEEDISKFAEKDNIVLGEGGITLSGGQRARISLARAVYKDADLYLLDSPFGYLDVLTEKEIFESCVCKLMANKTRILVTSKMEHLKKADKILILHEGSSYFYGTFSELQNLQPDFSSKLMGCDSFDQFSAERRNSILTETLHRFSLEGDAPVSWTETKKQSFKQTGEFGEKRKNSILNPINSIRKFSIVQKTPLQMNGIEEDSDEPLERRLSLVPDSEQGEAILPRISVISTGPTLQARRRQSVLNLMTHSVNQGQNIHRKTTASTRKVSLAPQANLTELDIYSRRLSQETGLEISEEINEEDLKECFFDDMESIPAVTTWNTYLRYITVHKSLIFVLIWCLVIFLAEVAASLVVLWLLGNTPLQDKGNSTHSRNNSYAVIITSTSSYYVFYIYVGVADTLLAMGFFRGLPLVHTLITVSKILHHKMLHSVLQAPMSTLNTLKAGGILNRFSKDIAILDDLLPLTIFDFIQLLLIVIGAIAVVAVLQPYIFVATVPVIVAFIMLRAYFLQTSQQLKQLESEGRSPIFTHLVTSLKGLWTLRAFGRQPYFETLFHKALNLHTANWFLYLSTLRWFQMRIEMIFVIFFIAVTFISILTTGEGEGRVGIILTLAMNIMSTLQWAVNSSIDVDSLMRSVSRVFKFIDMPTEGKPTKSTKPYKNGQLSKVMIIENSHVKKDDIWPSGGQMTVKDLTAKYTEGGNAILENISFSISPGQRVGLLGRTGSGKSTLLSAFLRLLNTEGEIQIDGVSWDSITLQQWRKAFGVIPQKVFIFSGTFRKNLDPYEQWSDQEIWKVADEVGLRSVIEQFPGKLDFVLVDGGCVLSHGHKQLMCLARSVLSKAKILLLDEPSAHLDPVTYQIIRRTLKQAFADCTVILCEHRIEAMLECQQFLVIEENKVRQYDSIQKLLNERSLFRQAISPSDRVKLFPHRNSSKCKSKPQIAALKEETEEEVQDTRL
Compound,pEC50 [1],pEC50 [2],Maximum % activity (with co-corrector) [3],"Emax (CSE-HRP, without co-corrector) [%]",Emax [4] [%],pEC50 [5],Maximum % activity (with co-corrector) [6],pEC50 [7]
COc1ccc(C(C)(C)C)cc1CN[C@H]1[C@H](C(C)(C)C)[C@@H](C(=O)O)N(C(=O)C(C)CC(F)(F)F)[C@H]1c1ccccc1 (stereo partly shown) [II-304],5.00 to 6.00,5.00 to 6.00,+++ (≥350),> 200,,,,
COc1ccc(C(C)(C)C)cc1CN[C@H]1[C@H](C(C)(C)C)[C@@H](C(=O)O)N(C(=O)C(C)Oc2cccc(F)c2)[C@H]1c1ccccc1 (stereo partly shown) [II-305],> 6.00,> 6.00,+++ (≥350),100 to 200,,,,
COc1ccc(C(C)(C)C)cc1CN[C@H]1[C@H](C(C)(C)C)[C@@H](C(=O)O)N(C(=O)C2CC(C)C2)[C@H]1c1ccccc1 (stereo partly shown) [II-306],5.00 to 6.00,5.00 to 6.00,+++ (≥350),> 200,,,,
COc1ccc(C(C)(C)C)cc1CN[C@H]1[C@H](C(C)(C)C)[C@@H](C(=O)O)N(C(=O)C2CC2c2ccc(F)cc2)[C@H]1c1ccccc1 (stereo partly shown) [II-307],> 6.00,> 6.00,+++ (≥350),> 200,,,,
COc1ccc(C(C)(C)C)cc1CN[C@H]1[C@H](C(C)(C)C)[C@@H](C(=O)O)N(C(=O)[C@H](C)OC)[C@H]1c1ccccc1 [II-308],5.00 to 6.00,5.00 to 6.00,+++ (≥350),100 to 200,,,,
COc1ccc(C(C)(C)C)cc1CN[C@H]1[C@H](C(C)(C)C)[C@@H](C(=O)O)N(C(=O)C2CC2(C)C)[C@H]1c1ccccc1 (stereo partly shown) [II-309],5.00 to 6.00,5.00 to 6.00,+++ (≥350),> 200,,,,
COc1ccc(C(C)(C)C)cc1CN[C@H]1[C@H](C(C)(C)C)[C@@H](C(=O)O)N(C(=O)C(C)Oc2ccc(F)cc2)[C@H]1c1ccccc1 (stereo partly shown) [II-310],5.00 to 6.00,> 6.00,+++ (≥350),> 200,,,,
COc1ccc(C(C)(C)C)cc1CN[C@H]1[C@H](C(C)(C)C)[C@@H](C(=O)O)N(C(=O)[C@@H](C)OC)[C@H]1c1ccccc1 [II-311],5.00 to 6.00,5.00 to 6.00,+++ (≥350),> 200,,,,
COc1ccc(C(C)(C)C)cc1CN[C@H]1[C@H](C(C)(C)C)[C@@H](C(=O)O)N(C(=O)C(C)Oc2ccccc2Cl)[C@H]1c1ccccc1 (stereo partly shown) [II-312],> 6.00,> 6.00,+++ (≥350),100 to 200,,,,
COc1ccc(C(C)(C)C)cc1CN[C@H]1[C@H](C(C)(C)C)[C@@H](C(=O)O)N(C(=O)C2CCC2)[C@H]1c1ccccc1 [II-313],5.00 to 6.00,5.00 to 6.00,+++ (≥350),> 200,,,,
COc1ccc(C(C)(C)C)cc1CN[C@H]1[C@H](C(C)(C)C)[C@@H](C(=O)O)N(C(=O)C2Cc3ccccc3S2)[C@H]1c1ccccc1 (stereo partly shown) [II-314],5.00 to 6.00,> 6.00,+++ (≥350),> 200,,,,
COc1ccc(C(C)(C)C)cc1CN[C@H]1[C@H](C(C)(C)C)[C@@H](C(=O)O)N(C(=O)[C@H](C)c2ccccc2)[C@H]1c1ccccc1 [II-315],> 6.00,> 6.00,+++ (≥350),> 200,,,,
COc1ccc(C(C)(C)C)cc1CN[C@H]1[C@H](C(C)(C)C)[C@@H](C(=O)O)N(C(=O)C2CCN(C(=O)C3CC3)CC2)[C@H]1c1ccccc1 [II-316],,,,,> 200,5.00 to 6.00,+++ (≥350),5.00 to 6.00
COc1ccc(C(C)(C)C)cc1CN[C@H]1[C@H](C(C)(C)C)[C@@H](C(=O)O)N(C(=O)C2CCc3cccc(OC)c3C2)[C@H]1c1ccccc1 (stereo partly shown) [II-317],,,,,> 200,> 6.00,+++ (≥350),> 6.00
COc1ccc(C(C)(C)C)cc1CN[C@H]1[C@H](C(C)(C)C)[C@@H](C(=O)O)N(C(=O)C2CCCCO2)[C@H]1c1ccccc1 (stereo partly shown) [II-318],,,,,> 200,5.00 to 6.00,+++ (≥350),5.00 to 6.00
COc1ccc(C(C)(C)C)cc1CN[C@H]1[C@H](C(C)(C)C)[C@@H](C(=O)O)N(C(=O)[C@H](C)Oc2ccccc2)[C@H]1c1ccccc1 [II-319],,,,,> 200,5.00 to 6.00,+++ (≥350),> 6.00
COc1ccc(C(C)(C)C)cc1CN[C@H]1[C@H](C(C)(C)C)[C@@H](C(=O)O)N(C(=O)C2CCc3cc(F)ccc3O2)[C@H]1c1ccccc1 (stereo partly shown) [II-320],,,,,> 200,5.00 to 6.00,+++ (≥350),> 6.00
COc1ccc(C(C)(C)C)cc1CN[C@H]1[C@H](C(C)(C)C)[C@@H](C(=O)O)N(C(=O)C2CC=CC2)[C@H]1c1ccccc1 [II-321],,,,,> 200,5.00 to 6.00,+++ (≥350),> 6.00
COc1ccc(C(C)(C)C)cc1CN[C@H]1[C@H](C(C)(C)C)[C@@H](C(=O)O)N(C(=O)[C@H]2CCCO2)[C@H]1c1ccccc1 [II-322],,,,,100 to 200,5.00 to 6.00,+++ (≥350),5.00 to 6.00
COc1ccc(C(C)(C)C)cc1CN[C@H]1[C@H](C(C)(C)C)[C@@H](C(=O)O)N(C(=O)C(C)Oc2cccc(C)c2C)[C@H]1c1ccccc1 (stereo partly shown) [II-323],,,,,100 to 200,5.00 to 6.00,+++ (≥350),> 6.00
COc1ccc(C(C)(C)C)cc1CN[C@H]1[C@H](C(C)(C)C)[C@@H](C(=O)O)N(C(=O)C(C)Oc2ccccc2F)[C@H]1c1ccccc1 (stereo partly shown) [II-324],,,,,> 200,5.00 to 6.00,+++ (≥350),> 6.00
COc1ccc(C(C)(C)C)cc1CN[C@H]1[C@H](C(C)(C)C)[C@@H](C(=O)O)N(C(=O)C(C)Sc2ccccc2)[C@H]1c1ccccc1 (stereo partly shown) [II-325],,,,,> 200,> 6.00,+++ (≥350),> 6.00
COc1ccc(C(C)(C)C)cc1CN[C@H]1[C@H](C(C)(C)C)[C@@H](C(=O)O)N(C(=O)[C@@H](C)c2ccccc2)[C@H]1c1ccccc1 [II-326],,,,,> 200,5.00 to 6.00,+++ (≥350),> 6.00
COc1ccc(C(C)(C)C)cc1CN[C@H]1[C@H](C(C)(C)C)[C@@H](C(=O)O)N(C(=O)C2CC2(F)F)[C@H]1c1ccccc1 (stereo partly shown) [II-327],,,,,100 to 200,5.00 to 6.00,+++ (≥350),5.00 to 6.00
COc1ccc(C(C)(C)C)cc1CN[C@H]1[C@H](C(C)(C)C)[C@@H](C(=O)O)N(C(=O)C2CC(C)(C)C2)[C@H]1c1ccccc1 [II-328],,,,,> 200,5.00 to 6.00,+++ (≥350),5.00 to 6.00
CCC(CC)C(=O)N1[C@H](C(=O)O)[C@@H](C(C)(C)C)[C@H](NCc2cc(C(C)(C)C)ccc2OC)[C@@H]1c1ccccc1 [II-329],,,,,> 200,5.00 to 6.00,+++ (≥350),5.00 to 6.00
COc1ccc(C(C)(C)C)cc1CN[C@H]1[C@H](C(C)(C)C)[C@@H](C(=O)O)N(C(=O)C(C)Oc2cccc(Cl)c2)[C@H]1c1ccccc1 (stereo partly shown) [II-330],,,,,> 200,5.00 to 6.00,+++ (≥350),> 6.00
COc1ccc(C(C)(C)C)cc1CN[C@H]1[C@H](C(C)(C)C)[C@@H](C(=O)O)N(C(=O)C2CC2c2ccncc2)[C@H]1c1ccccc1 (stereo partly shown) [II-331],,,,,100 to 200,5.00 to 6.00,+++ (≥350),5.00 to 6.00
